In ChEMBL document CHEMBL1201862, “PubChem BioAssay data set” (2004):
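Assay format: 96-well plates, 48-hour exposure. Abbreviation: GI50, concentration required for 50% inhibition of growth.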 Calls of active or inactive are those of the source. Cut-off read from the data, not from the text of the source: active = GI50 up to about 1.1 µM and inactive = higher. Square brackets hold non-standard residues; d marks the D form. Peptide text beside a SMILES is read from it. * marks the point of attachment. Boc = CC(C)(C)OC(=O)*; Lac = C[CH](O)C(=O)O; OBn = c1ccc(CO*)cc1

Experiments:
Test in all cases: NCI-60 cell line screen, 48 h
HOP-18 = tested on: HOP-18
K562 = tested on: K562
MOLT-4 = tested on: MOLT-4
HCT-116 = tested on: HCT-116
LOX IMVI = tested on: LOX IMVI
UO-31 = tested on: UO-31
SK-MEL-2 = tested on: SK-MEL-2
DMS-273 = tested on: DMS-273
ACHN = tested on: ACHN
M19-MEL = tested on: M19-MEL
SNB-75 = tested on: SNB-75
A498 = tested on: A498
HOP-92 = tested on: HOP-92
Hs-578T = tested on: Hs-578T
MDA-MB-231 = tested on: MDA-MB-231
PC-3 = tested on: PC-3
T47D = tested on: T47D
DU-145 = tested on: DU-145
BT-549 = tested on: BT-549
786-0 = tested on: 786-0

| SMILES | GI50 (HOP-18) | GI50 (K562) | GI50 (MOLT-4) | GI50 (HCT-116) | GI50 (LOX IMVI) | GI50 (UO-31) | GI50 (SK-MEL-2) | GI50 (DMS-273) | GI50 (ACHN) | GI50 (M19-MEL) | GI50 (SNB-75) | GI50 (A498) | GI50 (HOP-92) | GI50 (Hs-578T) | GI50 (MDA-MB-231) | GI50 (PC-3) | GI50 (T47D) | GI50 (DU-145) | GI50 (BT-549) | GI50 (786-0) |
| --- | --- | --- | --- | --- | --- | --- | --- | --- | --- | --- | --- | --- | --- | --- | --- | --- | --- | --- | --- | --- |
| OC1CCOc2ccccc21 (stereo not drawn) | 56.2 µM (inactive) | > 100 µM (inactive) | > 100 µM (inactive) | > 100 µM (inactive) | > 100 µM (inactive) | > 100 µM (inactive) | > 100 µM (inactive) | > 100 µM (inactive) | > 100 µM (inactive) | > 100 µM (inactive) |  |  |  |  |  |  |  |  |  |  |
| Cc1cc(=O)oc2c1cc1ccc3cccc4ccc2c1c34 | > 100 µM (inactive) | > 100 µM (inactive) | > 100 µM (inactive) |  | > 100 µM (inactive) | > 100 µM (inactive) | > 100 µM (inactive) |  | 46.7 µM (inactive) | > 100 µM (inactive) | 41 µM (inactive) | > 100 µM (inactive) | 31.5 µM (inactive) |  |  |  |  |  |  |  |
| COP(=O)(OC)C(N)Cc1c[nH]c2ccccc12 (stereo not drawn) |  | > 100 µM (inactive) | > 100 µM (inactive) | > 100 µM (inactive) | > 100 µM (inactive) | > 100 µM (inactive) | > 100 µM (inactive) |  | > 100 µM (inactive) |  | > 100 µM (inactive) | > 100 µM (inactive) |  | > 100 µM (inactive) | > 100 µM (inactive) | > 100 µM (inactive) | > 100 µM (inactive) | > 100 µM (inactive) |  |  |
| Nc1ccn(C2OC(CO[PH](=O)OC3C(CO[PH](=O)OC4C(CO[PH](=O)OC5C(CO[PH](=O)OC6C(CO[PH](=O)OC7C(CO[PH](=O)OC8C(CO[PH](=O)OC9C(CO[PH](=O)OC%10C(CO[PH](=O)OC%11C(CO)OC(n%12ccc(N)nc%12=O)C%11(F)F)OC(n%11ccc(N)nc%11=O)C%10(F)F)OC(n%10ccc(N)nc%10=O)C9(F)F)OC(n9ccc(N)nc9=O)C8(F)F)OC(n8ccc(N)nc8=O)C7(F)F)OC(n7ccc(N)nc7=O)C6(F)F)OC(n6ccc(N)nc6=O)C5(F)F)OC(n5ccc(N)nc5=O)C4(F)F)OC(n4ccc(N)nc4=O)C3(F)F)C(O)C2(F)F)c(=O)n1 (stereo not drawn) |  | 1.49 µM (inactive) | 0.0333 µM (active) | 0.0134 µM (active) | 0.0418 µM (active) | 0.0213 µM (active) | 2.18 µM (inactive) |  | 0.00533 µM (active) |  | 0.0254 µM (active) | 0.114 µM (active) | 0.155 µM (active) | 2.22 µM (inactive) | 1.4 µM (inactive) | 5.5 µM (inactive) | 0.553 µM (active) | 0.0109 µM (active) | 0.0661 µM (active) |  |
| O=C1CSC(/C=C/c2ccccc2)N1c1nc2cc3sc(N4C(=O)CSC4/C=C/c4ccccc4)nc3cc2s1 (stereo not drawn) |  | 42.4 µM (inactive) | 5.9 µM (inactive) | 27.7 µM (inactive) | > 41.3 µM (inactive) | > 51.5 µM (inactive) | 33.6 µM (inactive) |  | 42.1 µM (inactive) |  | 73.8 µM (inactive) | > 100 µM (inactive) | > 100 µM (inactive) | > 54 µM (inactive) | 62.2 µM (inactive) | 54.2 µM (inactive) | > 100 µM (inactive) | > 48.9 µM (inactive) | > 75.9 µM (inactive) | > 58.9 µM (inactive) |
| CC1CC(C[N+](=O)[O-])CC2(C1)OCCO2 (stereo not drawn) | > 100 µM (inactive) | > 100 µM (inactive) | > 100 µM (inactive) | > 100 µM (inactive) |  | > 100 µM (inactive) | > 100 µM (inactive) | > 100 µM (inactive) | > 100 µM (inactive) | > 100 µM (inactive) | > 100 µM (inactive) | > 100 µM (inactive) |  |  |  |  |  |  |  | > 100 µM (inactive) |
| Cn1c(=O)c(C#N)c(O)c2cc3ccccc3nc21 | > 100 µM (inactive) | > 100 µM (inactive) | > 100 µM (inactive) | > 100 µM (inactive) | > 100 µM (inactive) | > 100 µM (inactive) | > 100 µM (inactive) | > 100 µM (inactive) | > 100 µM (inactive) | > 100 µM (inactive) | 44.1 µM (inactive) |  | > 100 µM (inactive) |  |  |  |  |  |  |  |
| O=C(OCCOC(=O)c1ccc2c(c1)C1(SCCS1)c1ccccc1-2)c1ccc2c(c1)C1(SCCS1)c1ccccc1-2 | 27.5 µM (inactive) | > 100 µM (inactive) | > 100 µM (inactive) | > 100 µM (inactive) | > 100 µM (inactive) | > 100 µM (inactive) | > 100 µM (inactive) |  | > 100 µM (inactive) | > 100 µM (inactive) | > 100 µM (inactive) | > 100 µM (inactive) |  |  |  |  |  |  |  |  |
| O=C1NC(O)CCN1C1OC(CO)C(O)C1O (stereo not drawn) | > 250 µM (inactive) | > 250 µM (inactive) | > 250 µM (inactive) | > 141 µM (inactive) | > 136 µM (inactive) | > 250 µM (inactive) | > 158 µM (inactive) | > 250 µM (inactive) |  | > 213 µM (inactive) | > 250 µM (inactive) | > 211 µM (inactive) | > 250 µM (inactive) |  |  |  |  |  |  |  |
| CC(OC(=O)C(Cc1ccccc1)NC(=O)C(Cc1ccccc1)NC(=O)OC(C)(C)C)C(=O)OCc1ccccc1 (stereo not drawn) (Boc-Phe-Phe-[Lac]-OBn; configuration not given here) |  | > 100 µM (inactive) | > 100 µM (inactive) | > 100 µM (inactive) |  | > 100 µM (inactive) | > 100 µM (inactive) |  |  |  | 93.1 µM (inactive) |  | > 100 µM (inactive) | > 100 µM (inactive) | > 100 µM (inactive) | > 100 µM (inactive) | > 100 µM (inactive) | > 100 µM (inactive) | > 100 µM (inactive) |  |
